Assay results reported in patent US20180228722A1, “UNIT DOSE PACKAGES, COMPOSITIONS, AND TREATMENT REGIMENS TO DELIVER PRO-[…] S[…] KERATIN SURFACES” (ELC Management LLC, priority 2015, published 2018).

Key:
human neutrophils [1] = test: Release of Inflammatory Metabolites (PGE2, LTB4) and Inflammatory Metabolite Marker (5-HETE) from PMA/A23187-stimulated neutrophils, LC-MS/MS of supernatants; format: cell-based; settings: for decrease in Inflammatory Metabolites and Inflammatory Metabolite Markers (aggregate): vs control cells exposed to inflammation precipitating condition; for net decrease in cellular concentration of Inflammatory Metabolites and Inflammatory Metabolite Markers (aggregate): vs control cells subjected only to inflammation precipitating condition; for decrease in cellular concentration of 5-HETE / decrease in cellular concentration of LTB4 / decrease in cellular concentration of PGE2: vs PMA/A23187 control
Method: (§1) Ingredients were tested to assess the ability to promote Pro-Resolution Pathway Stimulators in human neutrophils. The following Inflammatory Metabolites were measured: PGE2 and LTB4. The Inflammatory Metabolite Marker, 5-HETE, was measured. Also measured were the Pro-Resolving Lipid Mediator Markers 15-HETE, 12-HETE, 14-HDOHE, 18-HEPE, and 17-HDOHE. PGE2, LTB4, and 5-HETE are indicators of inflammation. Increases in cellular secretion of PGE2, LTB4, or 5-HETE are seen in response to inflammation precipitating conditions. Active ingredients that cause a reduction in cellular concentration of PGE2, LTB4, or 5-HETE are anti-inflammatory in nature. Cellular secretion of Pro-Resolving Lipid Mediators occurs in the inflammation resolution phase. Active ingredients that stimulate cellular secretion of Pro-Resolving Lipid Mediators (as measured by measuring Pro-Resolving Lipid Mediator Markers) help to promote resolution of inflammation.
(§2) Then, the inflammatory response was initiated by adding an inflammation precipitating ingredient, in particular PMA/[…] which is a mixture of 5-(methylamino)-2-({2R,3R,6S,8S,9R,11R)-3,9,11-trimethyl-8-[(1S)-1-methyl-2-oxo-2-(1H-pyrrol-2-yl)ethyl]-1,7-dioxaspiro[5.5]undec-2-yl}methyl)-1,3-benzoxazole-4-carboxylic acid and PMA (phorbol myristate acetate), at a concentration of 0.05 μm and 1 μm respectively to each well. After one hour the supernatants were collected and stored at −80° C. until assayed.
(§3) Cell supernatants were assayed for Inflammatory Metabolites (PGE2, LBT4), Inflammatory Metabolite Markers (5-HETE), and Pro-Resolving Lipid Mediator Markers 15-HETE, 12-HETE, 14-HDOHE, 18-HEPE, and 17-HDOHE. More specifically, analysis was performed by extraction using an Oasis HLB 96-well plate (Waters) according to manufacturer's directions.
(§4) Suitable Pro-Resolving Activators are ingredients that show an increase in cellular concentration of Pro-Resolving Lipid Mediator Markers 15-HETE, 12-HETE, 14-HDOHE, 18-HEPE, and 17-HDOHE alone or in combination, when cells exposed to an inflammation precipitating condition either before or after exposure to the active.

human neutrophils [2] = test: Release of Pro-Resolving Lipid Mediator Markers (15-HETE, 12-HETE, 14-HDOHE, 18-HEPE, 17-HDOHE) from PMA/A23187-stimulated neutrophils, LC-MS/MS of supernatants; format: cell-based
Method: as §1, §2, §3, §4

**Q.** What does the source list for `Oc1ccc(C=Cc2cc(O)cc(O)c2)cc1` [resveratrol]?
**A.** decrease in Inflammatory Metabolites and Inflammatory Metabolite Markers (aggregate) (human neutrophils [1]; 0.1 ug/ml): 45%; decrease in Inflammatory Metabolites and Inflammatory Metabolite Markers (aggregate) (human neutrophils [1]; 1 ug/ml): 59%; decrease in Inflammatory Metabolites and Inflammatory Metabolite Markers (aggregate) (human neutrophils [1]; 10 ug/ml): 106%; % change of Pro-Resolving Lipid Mediator Markers, in the aggregate, compared to control (human neutrophils [2]; 0.1 ug/ml): −27%; % change of Pro-Resolving Lipid Mediator Markers, in the aggregate, compared to control (human neutrophils [2]; 1 ug/ml): −16%; % change of Pro-Resolving Lipid Mediator Markers, in the aggregate, compared to control (human neutrophils [2]; 10 ug/ml): −10%

**Q.** `O=C(O)c1ccccc1O` [salicylic acid] was tested. Which “net decrease in cellular concentration of Inflammatory Metabolites and Inflammatory Metabolite Markers (aggregate)” value (from here on “net decrease in cellular concentration”) (human neutrophils [1]; 0.33 μg/ml (first of range 0.33 to 33 μg/ml)) did it give?
**A.** Its value is 29%.

**Q.** And the “decrease in cellular concentration of 5-HETE” value (shortened to “decrease … of 5-HETE”) (human neutrophils [1]; 0.33 μg/ml)?
**A.** The value was 15%.

**Q.** What about the “decrease in cellular concentration of LTB4” value (from here on “decrease … of LTB4”) (human neutrophils [1]; 0.33 μg/ml) of the same compound?
**A.** Its value is 1%.

**Q.** And the “decrease in cellular concentration of PGE2” value (shortened to “decrease … of PGE2”) (human neutrophils [1]; 0.33 μg/ml)?
**A.** Its value is 19%.

**Q.** What about the “net decrease in cellular concentration” value (human neutrophils [1]; 3.3 μg/ml (second of range 0.33 to 33 μg/ml)) of the same compound?
**A.** The value was 58%.

**Q.** What about the “decrease … of 5-HETE” value (human neutrophils [1]; 3.3 μg/ml) of the same compound?
**A.** The value was 20%.

**Q.** What about the “decrease … of LTB4” value (human neutrophils [1]; 3.3 μg/ml) of the same compound?
**A.** The value was 12%.

**Q.** And the “decrease … of PGE2” value (human neutrophils [1]; 3.3 μg/ml)?
**A.** Its value is 28%.

**Q.** What about the “net decrease in cellular concentration” value (human neutrophils [1]; 33 μg/ml (third of range 0.33 to 33 μg/ml)) of the same compound?
**A.** Its value is 46%.

**Q.** And the “decrease … of 5-HETE” value (human neutrophils [1]; 33 μg/ml)?
**A.** Its value is 27%.

**Q.** What about the “decrease … of LTB4” value (human neutrophils [1]; 33 μg/ml) of the same compound?
**A.** The value was 17%.

**Q.** What about the “decrease … of PGE2” value (human neutrophils [1]; 33 μg/ml) of the same compound?
**A.** The value was 19%.

**Q.** And the “change in cellular concentration of Pro-Resolving Lipid Mediators (aggregate)” value (human neutrophils [2]; 0.33 μg/ml, vs control cells)?
**A.** The value was “small increase”.

**Q.** What about the “change in cellular concentration of all Pro-Resolving Lipid Mediator Markers in the aggregate” value (human neutrophils [2]; 3.3 μg/ml, vs control cells) of the same compound?
**A.** Its value is “decreased”.

**Q.** What about the “change in cellular concentration of Pro-Resolving Lipid Mediator Marker 15-HETE” value (human neutrophils [2]; 33 μg/ml, vs control cells) of the same compound?
**A.** The value was “decrease”.

**Q.** What about the “change in cellular concentration of all Pro-Resolving Lipid Mediator Markers in the aggregate” value (human neutrophils [2]; 33 μg/ml, vs control cells) of the same compound?
**A.** The value was “decreased”.

**Q.** For resveratrol salicylate, which “decrease in cellular concentration of Inflammatory Metabolites and Inflammation Metabolite Markers in the aggregate (better than control)” value (“decrease … (better than control)” below) (human neutrophils [1]; 0.43 ug/ml) is on record?
**A.** The value was 87%.

**Q.** What about the “decrease … (better than control)” value (human neutrophils [1]; 4.3 ug/ml) of the same compound?
**A.** Its value is 163%.

**Q.** And the “decrease … (better than control)” value (human neutrophils [1]; 43 ug/ml)?
**A.** Its value is 257%.

**Q.** What about the “increase in cellular concentration of Pro-Resolving Lipid Mediator Markers, in the aggregate” value (from here on “increase in cellular concentration”) (human neutrophils [2]; 0.43 ug/ml) of the same compound?
**A.** Its value is “not being as effective”.

**Q.** What about the “increase in cellular concentration” value (human neutrophils [2]; 4.3 ug/ml) of the same compound?
**A.** The value was 4%.

**Q.** What about the “increase in cellular concentration” value (human neutrophils [2]; 43 ug/ml) of the same compound?
**A.** Its value is 37%.
